According to US11807650B2, “NMDA receptor modulators and uses thereof” (Novartis AG, priority 2016, dated 2023):

Target: T1, human GRIN1 (transcript variant NR1-3) and GRIN2D expressed in Xenopus oocytes (Homo sapiens, UniProt O15399)
T1 construct: GenScript (GRIN2D synthesis) SC115601; host or cells: Xenopus oocytes injected with cRNA (1 GluN1 : 2 GluN2)
Test: NR2D oocyte potentiation assay (two-electrode voltage clamp)
Type: cell-based
Settings: 10 uM test compound; glutamate and glycine 10 μM each; holding potential −40 mV
Experimental: NR2D Oocyte Potentiation Assay. Xenopus oocytes (Xenopus 1, Dexter, Mich.) were initially separated from the lobes of an ovary using surgical forceps; they were then defolliculated by constant agitation at room temperature in OR-2 buffer (82.5 mM NaCl; 2.5 mM KCl; 1 mM MgCl2; 5 mM HEPES; pH 7.4) containing 2 mg/ml collagenase Type 1 (Fisher Scientific, USA) for 1.5-2 hours. The cells were then gently aspirated with a Pasteur pipette to remove the follicular tissue; this was followed by washing three times with OR-2 to remove all traces of collagenase. The oocytes were then washed in ND-96 (96 mM NaCl, 2 mM KCl, 1.8 mM CaCl2, 1 mM MgCl2, 5 mM HEPES, 50 ng/L gentamycin, 100 units/ml penicillin and 100 μg/ml streptomycin; pH 7.6) three times and this was followed by incubation in ND-96 at room temperature with mild agitation for 15 minutes; subsequently they were stored for at least 2 hours at 16° C. before sorting and selection for injection. Oocytes selected for injection were incubated overnight in ND-96 at 16° C.
The human GRIN1 (transcript variant NR1-3 (Origene, SKU #: SC115601, Rockville, Md.) and GRIN2D (NCBI locus NM_000836, sequence optimized and synthesized by GenScript) were linearized and transcribed using the mMessage mMachine kit (Life Technologies) and promoters SP6 (for GluN1) and T7 (for GluN2D). cRNAs were mixed together at a ratio of 1 GluN1:2 GluN2. Each oocyte was injected with 50 nL of cRNA and stored in ND96 (96 mM NaCl, 2 mM KCl, 1.8 mM CaCl2, 1 mM MgCl2, 5 mM HEPES, 50 ng/L gentamycin, 100 units/ml penicillin and 100 μg/ml streptomycin; pH 7.6) at 16° C. for 72 h prior to recording.
Currents were recorded using a two-electrode voltage-clamp amplifier (Oocyte Clamp OC-725C; Warner Instrument Corp, Hamden, Conn.), and digitized using Digidata 1550A and pClamp (v. 10) software (Molecular Devices, Sunnyvale, Calif.). Electrodes were filled with 3 M KCl and had resistances that ranged from 0.2-1 MO. All measurements were made at a holding potential of −40 mV. Cells were continuously perfused with oocyte recording solution containing 90 mM NaCl, 1 mM KCl, 0.5 mM BaCl2, and 10 mM HEPES (Ph 7.4). Glutamate and Glycine (co-agonists) were applied at respective concentrations of 10 μM each. Co-agonists were applied until a plateau was reached, and test compounds were then added in the continued presence of co-agonists until a new plateau was reached. After the addition of the last test compound concentration, the oocyte was washed with oocyte recording buffer. Fraction of current remaining was calculated as [(current in presence of test compound−background current)/(co-agonist current−background current)] and IC50 values were computed using Prism 6.0 (Graphpad).

T1 sequence (O15399 28-1336, other chains not shown): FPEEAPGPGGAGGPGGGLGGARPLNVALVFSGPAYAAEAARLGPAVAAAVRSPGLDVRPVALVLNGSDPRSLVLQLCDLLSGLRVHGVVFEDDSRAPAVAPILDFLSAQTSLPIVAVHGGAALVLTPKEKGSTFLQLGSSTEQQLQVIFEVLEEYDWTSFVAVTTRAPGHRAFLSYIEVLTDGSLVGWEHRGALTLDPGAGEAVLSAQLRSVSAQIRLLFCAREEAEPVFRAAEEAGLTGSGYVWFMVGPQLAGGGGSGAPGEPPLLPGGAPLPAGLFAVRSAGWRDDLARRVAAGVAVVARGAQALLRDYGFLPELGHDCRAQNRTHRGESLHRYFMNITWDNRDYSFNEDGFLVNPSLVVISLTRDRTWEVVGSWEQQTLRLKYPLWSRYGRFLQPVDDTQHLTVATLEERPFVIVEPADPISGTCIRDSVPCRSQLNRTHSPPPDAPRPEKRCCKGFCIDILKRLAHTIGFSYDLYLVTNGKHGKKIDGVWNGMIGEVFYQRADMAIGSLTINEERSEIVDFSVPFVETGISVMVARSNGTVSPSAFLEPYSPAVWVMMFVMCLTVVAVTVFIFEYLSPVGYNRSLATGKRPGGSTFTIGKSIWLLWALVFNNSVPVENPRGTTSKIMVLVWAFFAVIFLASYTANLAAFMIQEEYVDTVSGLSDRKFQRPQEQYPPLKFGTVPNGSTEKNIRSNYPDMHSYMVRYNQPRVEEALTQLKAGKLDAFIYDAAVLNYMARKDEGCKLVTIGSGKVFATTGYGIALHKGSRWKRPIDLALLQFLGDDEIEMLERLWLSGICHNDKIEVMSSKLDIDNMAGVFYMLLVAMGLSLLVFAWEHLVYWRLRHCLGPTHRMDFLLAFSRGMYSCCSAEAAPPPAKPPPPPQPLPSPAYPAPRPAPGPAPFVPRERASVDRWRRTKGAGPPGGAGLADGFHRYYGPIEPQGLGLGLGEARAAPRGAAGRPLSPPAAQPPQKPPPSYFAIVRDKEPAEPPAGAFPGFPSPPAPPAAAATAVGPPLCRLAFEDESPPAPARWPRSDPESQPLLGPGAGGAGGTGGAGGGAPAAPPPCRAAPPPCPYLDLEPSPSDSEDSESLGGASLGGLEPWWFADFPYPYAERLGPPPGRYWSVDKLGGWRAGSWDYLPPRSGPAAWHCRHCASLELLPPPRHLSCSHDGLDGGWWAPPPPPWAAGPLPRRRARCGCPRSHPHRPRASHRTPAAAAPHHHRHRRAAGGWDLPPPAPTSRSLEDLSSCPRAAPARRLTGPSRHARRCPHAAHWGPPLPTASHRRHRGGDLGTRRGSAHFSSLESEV

Work on C[C@H]1CSc2cc(-c3cnc(C(C)(C)C)c(F)c3)c(C#N)c(=O)n2C1 [Example 106, (R)-8-(6-(tert-butyl)-5-fluoropyridin-3-yl)-3-methyl-6-oxo-3,4-dihydro-2H,6H-pyrido[2,1-b][1,3]thiazine-7-carbonitrile] yielded an activation at 10 µM of over 1000%.

CCC1CSc2nc(-c3ccc(C(C)(C)C)nc3)c(C#N)c(=O)n2C1 (stereo not shown) [Example 81, 8-(6-tert-butylpyridin-3-yl)-3-ethyl-6-oxo-2H,3H,4H, 6H-pyrimido [2,1-b][1,3] thiazine-7-carbonitrile] was tested, and the activation at 10 µM was over 1000%.

Cc1c(-c2ccc(C(C)(C)C)nc2)nc2n(c1=O)CCCS2 [Example 31, 8-(6-(tert-butyl)pyridin-3-yl)-7-methyl-3,4-dihydro-2H,6H-pyrimido[2,1-b][1,3]thiazin-6-one] was tested, and the activation at 10 µM was 10 to 100%.

CCOC(=O)c1ccc(-c2nc3n(c(=O)c2C#N)CCCS3)cn1 [Example 82, ethyl 5-(7-cyano-6-oxo-3,4-dihydro-2H,6H-pyrimido[2,1-b][1,3]thiazin-8-yl)picolinate] was tested, and the “NR2D Oocyte % Potentiation @ 10 uM” value was “Inhibitor”.

CC(C)(C)c1ccc(-c2cc(=O)n3ccccc3n2)cc1 [Example 12, 2-(4-(tert-butyl)phenyl)-4H-pyrido[1,2-a]pyrimidin-4-one] was tested, and the activation at 10 µM was 10 to 100%.

In the case of C[C@H]1CSc2nc(-c3cnc(C(C)(C)C)nc3)c(C#N)c(=N)n2C1 [Example 100, (R)-8-(2-(tert-butyl)pyrimidin-5-yl)-6-imino-3-methyl-3,4-dihydro-2H,6H-pyrimido[2,1-b][1,3]thiazine-7-carbonitrile], the activation at 10 µM is reported as over 1000%.

CNC(=O)C1CSc2nc(-c3cnc(C(C)(C)C)c(F)c3)c(C#N)c(=O)n2C1 (stereo not shown) [Example 163, 8-(6-(tert-butyl)-5-fluoropyridin-3-yl)-7-cyano-N-methyl-6-oxo-3,4-dihydro-2H,6H-pyrimido[2,1-b][1,3]thiazine-3-carboxamide] was tested, and the activation at 10 µM was over 1000%.

With CCOC(=O)NCC1CSc2nc(-c3cnc(C(C)(C)C)c(F)c3)c(C#N)c(=O)n2C1 (stereo not shown) [Example 147, ethyl ((8-(6-(tert-butyl)-5-fluoropyridin-3-yl)-7-cyano-6-oxo-3,4-dihydro-2H,6H-pyrimido[2,1-b][1,3]thiazin-3-yl)methyl)carbamate] the activation at 10 µM was over 1000%.

Work on CC(C)(C)c1ncc(-c2nc3n(c(=O)c2C#N)C[C@@H](CO)CS3)cn1 [Example 137, (S)-8-(2-(tert-butyl)pyrimidin-5-yl)-3-(hydroxymethyl)-6-oxo-3,4-dihydro-2H,6H-pyrimido[2,1-b][1,3]thiazine-7-carbonitrile] yielded an activation at 10 µM of 100 to 500%.

C[C@H]1CSc2cc(-c3ccc(C(C)(C)C)nc3)c(C#N)c(=O)n2C1 [Example 96, (R)-8-(6-(tert-butyl)pyridin-3-yl)-3-methyl-6-oxo-3,4-dihydro-2H,6H-pyrido[2,1-b][1,3]thiazine-7-carbonitrile] was tested, and the activation at 10 µM was over 1000%.

With N#Cc1c(-c2ccnc(C3CC3)n2)nc2n(c1=O)CCCS2 [Example 180, 8-(2-cyclopropylpyrimidin-4-yl)-6-oxo-2H,3H,4H,6H-pyrimido[2,1-b][1,3]thiazine-7-carbonitrile] the activation at 10 µM was under 10%.

Compound C=Cc1c(-c2ccc(C(C)(C)C)cc2)nc2n(c1=O)CCCC2 [Example 14, 2-(4-(tert-butyl)phenyl)-3-vinyl-6,7,8,9-tetrahydro-4H-pyrido[1,2-a]pyrimidin-4-one] has an activation at 10 µM of under 10%.

COCC1CSc2nc(-c3cnc(C(C)(C)C)c(F)c3)c(C#N)c(=O)n2C1 (stereo not shown) [Example 125, 8-(6-(tert-butyl)-5-fluoropyridin-3-yl)-3-(methoxymethyl)-6-oxo-3,4-dihydro-2H,6H-pyrimido[2,1-b][1,3]thiazine-7-carbonitrile] showed an activation at 10 µM of over 1000%.

CCN1CSc2nc(-c3ccc(C(C)(C)C)cc3)c(C#N)c(=O)n2C1 [Example 7, 8-(4-(tert-butyl)phenyl)-3-ethyl-6-oxo-3,4-dihydro-2H,6H-pyrimido[2,1-b][1,3,5]thiadiazine-7-carbonitrile] gave an activation at 10 µM of 10 to 100%.

Work on CCN1CSc2nc(-c3ccc(C(C)(C)C)nc3)c(C#N)c(=O)n2C1 [Example 9, 8-(6-(tert-butyl)pyridin-3-yl)-3-ethyl-6-oxo-3,4-dihydro-2H,6H-pyrimido[2,1-b][1,3,5]thiadiazine-7-carbonitrile] yielded an activation at 10 µM of 10 to 100%.

For CN(C)c1ccc(-c2nc3n(c(=O)c2C#N)CCCS3)cn1 [Example 66, 8-(6-(dimethylamino)pyridin-3-yl)-6-oxo-3,4-dihydro-2H,6H-pyrimido[2,1-b][1,3]thiazine-7-carbonitrile], the activation at 10 µM was 10 to 100%.

With CN(C)C(=O)C1CSc2nc(-c3cnc(C(C)(C)C)c(F)c3)c(C#N)c(=O)n2C1 (stereo not shown) [Example 161, 8-(6-(tert-butyl)-5-fluoropyridin-3-yl)-7-cyano-N,N-dimethyl-6-oxo-3,4-dihydro-2H,6H-pyrimido[2,1-b][1,3]thiazine-3-carboxamide] the activation at 10 µM was 100 to 500%.

CC(C)(C)c1ccc(-c2nc3n(c(=O)c2C#N)CC(CO)CS3)cn1 (stereo not shown) [Example 87, 8-(6-(tert-butyl)pyridin-3-yl)-3-(hydroxymethyl)-6-oxo-3,4-dihydro-2H,6H-pyrimido[2,1-b][1,3]thiazine-7-carbonitrile] gave an activation at 10 µM of 500 to 1000%.

CC1CSc2nc(-c3cnc(C(C)(C)C)c(O)c3)c(C#N)c(=O)n2C1 (stereo not shown) [Example 126, 8-(6-(tert-butyl)-5-hydroxypyridin-3-yl)-3-methyl-6-oxo-3,4-dihydro-2H,6H-pyrimido[2,1-b][1,3]thiazine-7-carbonitrile] showed an activation at 10 µM of over 1000%.

In the case of CC(C)(C)c1ccc(-c2nc3n(c(=O)c2C#N)CN(c2ccccc2)CS3)cc1 [Example 5, 8-(4-(tert-butyl)phenyl)-6-oxo-3-phenyl-3,4-dihydro-2H,6H-pyrimido[2,1-b][1,3,5]thiadiazine-7-carbonitrile], the activation at 10 µM is reported as 10 to 100%.

In the case of CC1CSc2nc(-c3cccnc3C34CC(C3)C4)c(C#N)c(=O)n2C1 (stereo not shown) [Example 149, 8-(2-(bicyclo[1.1.1]pentan-1-yl)pyridin-3-yl)-3-methyl-6-oxo-3,4-dihydro-2H,6H-pyrimido[2,1-b][1,3]thiazine-7-carbonitrile], the activation at 10 µM is reported as under 10%.

With CN(C)C(C)(C)c1ccc(-c2nc3n(c(=O)c2C#N)CCCS3)cn1 [Example 128, 8-(6-(2-(dimethylamino)propan-2-yl)pyridin-3-yl)-6-oxo-3,4-dihydro-2H,6H-pyrimido[2,1-b][1,3]thiazine-7-carbonitrile] the activation at 10 µM was under 10%.

In the case of COCC1CSc2nc(-c3ccc(C(C)(C)C)nc3)c(C#N)c(=O)n2C1 (stereo not shown) [Example 123, 8-(6-(tert-butyl)pyridin-3-yl)-3-(methoxymethyl)-6-oxo-3,4-dihydro-2H,6H-pyrimido[2,1-b][1,3]thiazine-7-carbonitrile], the activation at 10 µM is reported as 500 to 1000%.

C[C@H]1CSc2nc(-c3cnc(C(C)(C)C)c(O)c3)c(C#N)c(=O)n2C1 [Example 139, (R)-8-(6-(tert-butyl)-5-hydroxypyridin-3-yl)-3-methyl-6-oxo-3,4-dihydro-2H,6H-pyrimido[2,1-b][1,3]thiazine-7-carbonitrile] showed an activation at 10 µM of over 1000%.

CC(C)(C)c1ncc(-c2nc3n(c(=O)c2C#N)CCS3)cn1 [Example 4, 7-(2-(tert-butyl)pyrimidin-5-yl)-5-oxo-2,3-dihydro-5H-thiazolo[3,2-a]pyrimidine-6-carbonitrile] was tested, and the activation at 10 µM was 100 to 500%.

In the case of CC1CSc2cc(-c3cnc(C(C)(C)C)nc3)c(C#N)c(=O)n2C1 (stereo not shown) [Example 71, 8-(2-(tert-butyl)pyrimidin-5-yl)-3-methyl-6-oxo-3,4-dihydro-2H,6H-pyrido[2,1-b][1,3]thiazine-7-carbonitrile], the activation at 10 µM is reported as over 1000%.

CC(C)(C)c1ncc(-c2nc3n(c(=O)c2C#N)CC(CF)CS3)cn1 (stereo not shown) [Example 91, 8-(2-(tert-butyl)pyrimidin-5-yl)-3-(fluoromethyl)-6-oxo-3,4-dihydro-2H,6H-pyrimido[2,1-b][1,3]thiazine-7-carbonitrile] was tested, and the activation at 10 µM was 500 to 1000%.

In the case of Cc1ccc2nc(-c3ccc(C(C)(C)C)nc3)c(C#N)c(=O)n2c1 [Example 21, 2-(6-(tert-butyl)pyridin-3-yl)-7-methyl-4-oxo-4H-pyrido[1,2-a]pyrimidine-3-carbonitrile], the activation at 10 µM is reported as 100 to 500%.
